Measured values taken from US20240390446A1, “COMPOSITIONS AND METHODS FOR TREATING OR PREVENTING INFLAMMATORY DISEASES INCLUDING DIABETES AND THYROID DISEASES” (priority 2021, published 2024).

Assay: Case report: blood glucose levels in pregnant with gestational diabetes given sesame oil and Nigella sativa oil
Type: in vivo, human
Experimental: A pregnant person diagnosed with gestational diabetes and treated with […] was administered daily with 5 ml sesame oil 100% w/v ([…]) and then co-administered with 5 ml sesame oil 100% w/v (Naissance) and 5 ml 100% w/v Nigella sativa oil (Better Flex). During oil treatment glucamin was not administered.
Blood glucose levels (mg/dL) were determined at the indicated hours.

## NC(=O)CC[C@H](N)C(=O)O [glutamin]
6 AM, 10 Sep. 2020
  Blood glucose levels: 172 mg/dL
6 AM, 11 Sep. 2020
  Blood glucose levels: 125 mg/dL
6 AM, 12 Sep. 2020
  Blood glucose levels: 101 mg/dL
6 AM, 13 Sep. 2020
  Blood glucose levels: 113 mg/dL
6 AM, 14 Sep. 2020
  Blood glucose levels: 94 mg/dL
6 AM, 15 Sep. 2020
  Blood glucose levels: 158 mg/dL
6 AM, 16 Sep. 2020
  Blood glucose levels: 148 mg/dL
6 AM, 17 Sep. 2020
  Blood glucose levels: 99 mg/dL
6 AM, 18 Sep. 2020
  Blood glucose levels: 94 mg/dL
11 AM, 10 Sep. 2020
  Blood glucose levels: 154 mg/dL
11 AM, 11 Sep. 2020
  Blood glucose levels: 109 mg/dL
11 AM, 12 Sep. 2020
  Blood glucose levels: 88 mg/dL
11 AM, 13 Sep. 2020
  Blood glucose levels: 84 mg/dL
11 AM, 14 Sep. 2020
  Blood glucose levels: 90 mg/dL
11 AM, 15 Sep. 2020
  Blood glucose levels: 159 mg/dL
11 AM, 17 Sep. 2020
  Blood glucose levels: 124 mg/dL
11 AM, 18 Sep. 2020
  Blood glucose levels: 84 mg/dL
15 PM, 10 Sep. 2020
  Blood glucose levels: 122 mg/dL
15 PM, 11 Sep. 2020
  Blood glucose levels: 126 mg/dL
15 PM, 12 Sep. 2020
  Blood glucose levels: 106 mg/dL
15 PM, 13 Sep. 2020
  Blood glucose levels: 125 mg/dL
15 PM, 14 Sep. 2020
  Blood glucose levels: 134 mg/dL
15 PM, 15 Sep. 2020
  Blood glucose levels: 98 mg/dL
15 PM, 16 Sep. 2020
  Blood glucose levels: 154 mg/dL
15 PM, 17 Sep. 2020
  Blood glucose levels: 90 mg/dL
15 PM, 18 Sep. 2020
  Blood glucose levels: 89 mg/dL
15 PM, 21 Sep. 2020
  Blood glucose levels: 109 mg/dL
21 PM, 10 Sep. 2020
  Blood glucose levels: 97 mg/dL
21 PM, 11 Sep. 2020
  Blood glucose levels: 103 mg/dL
21 PM, 12 Sep. 2020
  Blood glucose levels: 95 mg/dL
21 PM, 13 Sep. 2020
  Blood glucose levels: 80 mg/dL
21 PM, 14 Sep. 2020
  Blood glucose levels: 125 mg/dL
21 PM, 15 Sep. 2020
  Blood glucose levels: 83 mg/dL
21 PM, 16 Sep. 2020
  Blood glucose levels: 88 mg/dL
21 PM, 17 Sep. 2020
  Blood glucose levels: 77 mg/dL
21 PM, 18 Sep. 2020
  Blood glucose levels: 84 mg/dL
21 PM, 21 Sep. 2020
  Blood glucose levels: 74 mg/dL
